The subject of the assay is Pseudomonas aeruginosa. The assay is described as follows: MIC (minimum inhibition concentration) against P. aeruginosa. It counts as cell-based. As for the experimental part:
Compositions with clarithromycin were prepared by cold physical process. Powder clarithromycin compositions were dissolved in water to obtaining nanoemulsion. The control free clarithromycin was dissolved in 1% DMSO. Emulsion dried using lyophilization. Samples were tested in three independent experiments, with triplicate in each experiment. Particle size was measured using DLS. MIC data (minimum inhibition concentrations) of the formulated and free antibiotic were compared.

Molecules are shown by their SMILES.

The compound `CC[C@H]1OC(=O)[C@H](C)[C@@H](O[C@H]2C[C@@](C)(OC)[C@@H](O)[C@H](C)O2)[C@H](C)[C@@H](O[C@@H]2O[C@H](C)C[C@H](N(C)C)[C@H]2O)[C@](C)(OC)C[C@@H](C)C(=O)[C@H](C)[C@@H](O)[C@]1(C)O` [Free clarithromycin, clarithromycin] registered an MIC of 0.0625%.

These data come from US20230270678A1, “PHARMACEUTICAL COMPOSITIONS FOR IMPROVED DELIVERY OF THERAPEUTIC LIPOPHILIC ACTIVES” (KARNAK TECHNOLOGIES, LLC, priority 2020, published 2023).
